{"source": "patent US7498337B2", "about": "“Acid secretion inhibitor” (Takeda Pharmaceutical Company Limited, priority 2005, dated 2009)", "key": {"[1]": {"biological_target": "T1, H+,K+-ATPase (gastric mucous membrane microsomal fraction) (Sus scrofa, UniProt P19156)", "T1 construct": "The obtained microsomal fraction was used as a proton, potassium-adenosine triphosphatase standard product; from tissue; host or cells: swine stomach, gastric mucous membrane microsomal fraction", "T1 sequence (P19156 2-1034 limits assumed)": "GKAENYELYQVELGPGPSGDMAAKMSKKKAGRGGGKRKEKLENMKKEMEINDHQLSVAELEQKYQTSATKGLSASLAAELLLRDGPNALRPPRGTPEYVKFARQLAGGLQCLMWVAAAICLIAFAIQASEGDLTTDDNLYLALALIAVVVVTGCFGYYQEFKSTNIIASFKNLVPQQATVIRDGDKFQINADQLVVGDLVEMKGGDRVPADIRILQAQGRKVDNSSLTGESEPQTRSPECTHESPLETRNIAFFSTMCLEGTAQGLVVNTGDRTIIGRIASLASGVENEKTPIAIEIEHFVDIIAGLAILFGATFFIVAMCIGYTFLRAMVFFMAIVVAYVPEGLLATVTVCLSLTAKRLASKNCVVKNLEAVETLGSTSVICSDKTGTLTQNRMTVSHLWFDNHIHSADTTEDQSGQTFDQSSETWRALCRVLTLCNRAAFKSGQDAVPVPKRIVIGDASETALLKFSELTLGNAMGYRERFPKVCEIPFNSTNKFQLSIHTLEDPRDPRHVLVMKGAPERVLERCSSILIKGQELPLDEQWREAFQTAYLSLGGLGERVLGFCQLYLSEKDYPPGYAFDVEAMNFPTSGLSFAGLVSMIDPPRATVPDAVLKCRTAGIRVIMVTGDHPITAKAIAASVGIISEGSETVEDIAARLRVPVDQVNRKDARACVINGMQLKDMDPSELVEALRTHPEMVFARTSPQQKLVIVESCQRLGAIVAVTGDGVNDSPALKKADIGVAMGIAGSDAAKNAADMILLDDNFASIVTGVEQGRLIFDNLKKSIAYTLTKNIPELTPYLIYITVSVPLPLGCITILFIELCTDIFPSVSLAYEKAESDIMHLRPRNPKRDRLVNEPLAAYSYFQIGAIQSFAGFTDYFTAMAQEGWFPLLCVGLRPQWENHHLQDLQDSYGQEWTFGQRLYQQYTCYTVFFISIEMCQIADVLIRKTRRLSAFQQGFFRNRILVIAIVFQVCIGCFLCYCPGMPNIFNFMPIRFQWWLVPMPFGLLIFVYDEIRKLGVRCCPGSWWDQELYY", "T1 sequence (P18434 whole entry partner)": "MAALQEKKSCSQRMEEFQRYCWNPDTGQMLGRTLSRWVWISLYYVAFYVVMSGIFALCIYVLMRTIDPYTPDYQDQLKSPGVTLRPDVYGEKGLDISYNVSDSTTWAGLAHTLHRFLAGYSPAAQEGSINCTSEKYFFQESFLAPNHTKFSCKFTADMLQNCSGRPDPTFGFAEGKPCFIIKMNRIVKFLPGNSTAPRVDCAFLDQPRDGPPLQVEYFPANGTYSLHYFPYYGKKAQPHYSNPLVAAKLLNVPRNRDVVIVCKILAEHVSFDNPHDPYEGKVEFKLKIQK", "test": "Proton potassium-adenosine triphosphatase (H+,K+-ATPase) inhibitory activity test", "format": "biochemical", "conditions": "swine gastric microsomal fraction, pH 6.5, 37° C., 30 min preincubation", "method": "Proton Potassium-Adenosine Triphosphatase (H^+,K^+-ATPase) Inhibitory Activity Test According to the method [Biochim. Biophys. Acta, 728, 31 (1983)] of Wallmark et al., a gastric mucous membrane microsomal fraction was prepared from the stomach of swine. First, the stomach was removed, washed with tap water, immersed in 3 mol/L brine, and the surface of the mucous membrane was wiped with a paper towel. The gastric mucous membrane was detached, chopped, and homogenized in a 0.25 mol/L saccharose solution (pH 6.8) containing 1 mmol/L EDTA and 10 mmol/L tris-hydrochloric acid using polytron (Kinematica). The obtained homogenate was centrifuged at 20,000×g for 30 min and the supernatant was centrifuged at 100,000×g for 90 min. The precipitate was suspended in 0.25 mol/L saccharose solution, superimposed on a 0.25 mol/L saccharose solution containing 7.5% Ficoll, and centrifuged at 100,000×g for 5 hr. The fraction containing the interface between the both layers was recovered, and centrifugally washed with 0.25 mol/L saccharose solution. The obtained microsomal fraction was used as a proton, potassium-adenosine triphosphatase standard product. […] The enzyme reaction was started by adding 5 μL of a 2 mmol/L-adenosine triphosphate tris salt solution (50 mmol/L HEPES-tris buffer (5 mmol/L magnesium chloride, pH 6.5)). The enzyme reaction was carried out at 37° C. for 20 min, and 15 μL of a malachite green solution (0.12% malachite green solution in sulfuric acid (2.5 mol/L), 7.5% ammonium molybdate and 11% Tween 20 were mixed at a ratio of 100:25:2) was added to quench the reaction. […] In addition, the amount of the inorganic phosphoric acid in the reaction solution free of potassium chloride was measured in the same manner, which was subtracted from the inorganic phosphoric acid amount in the presence of potassium chloride to determine the proton, potassium-adenosine triphosphatase activity."}, "HepG2 cells": {"test_system": "HepG2 cells", "test": "Intracellular ATP content in HepG2 cells (cytotoxicity)", "format": "cell-based, human", "conditions": "HepG2, 30 μM, culture for one day, relative value to control, ATPLite, n≧3 average", "method": "Human liver cancer-derived cell line HepG2 (ATCC No. HB-8065) was passaged using Dulbecco's Modified Eagle medium (DMEM; Invitrogen) containing 10% fetal bovine serum (FBS; TRACE SCIENTIFIC LTD.), 1 mmol/L sodium pyruvate (Invitrogen), 2 mmol/L L-glutamine (Invitrogen), 50 IU/mL penicillin (Invitrogen) and 50 μg/mL streptomycin (Invitrogen) at 5% CO2, 37° C. The test reagent was prepared with DMSO to 10 mM, and further diluted with DMEM medium containing 0.5% FBS, 1 mmol/L sodium pyruvate, 2 mmol/L L-glutamine, 50 IU/mL penicillin and 50 μg/mL streptomycin to a final concentration of DMSO of 0.1%. HepG2 (2×10^4 cells/well) was cultured on a 96 well white plate (Costar) with the test reagent at 5% CO2, 37° C. After culture for one day, the intracellular ATP content was measured using ATPLite™ (PerkinElmer Life Sciences). The results are shown in Table 24 (n≧3, average value±SD) as a relative value (%) to control (without addition of drug) at 30 μM."}}}
{"smiles": "CNCc1cc(-c2ccccc2)n(S(=O)(=O)c2ccc(OC)nc2)c1.Cl", "note": "[Example 2, 1-{1-[(6-methoxypyridin-3-yl)sulfonyl]-5-phenyl-1H-pyrrol-3-yl}-N-methylmethanamine hydrochloride]", "values": [{"measurement": "IC50", "setting": "[1]", "result": 13, "unit": "nM"}, {"measurement": "ATP content (%, 30 μM)", "setting": "HepG2 cells", "result": 45.2, "unit": "%"}]}
{"smiles": "CNCc1cc(-c2ccccc2)n(S(=O)(=O)c2cnc(NC)nc2)c1.Cl", "note": "[Example 5, N-methyl-1-{1-[2-(methylamino)pyrimidin-5-ylsulfonyl]-5-phenyl-1H-pyrrol-3-yl}methanamine hydrochloride]", "values": [{"measurement": "IC50", "setting": "[1]", "result": 65, "unit": "nM"}, {"measurement": "ATP content (%, 30 μM)", "setting": "HepG2 cells", "result": 73.9, "unit": "%"}]}
{"smiles": "CNCc1cc(-c2ccccc2)n(S(=O)(=O)c2cnc(C)nc2)c1.Cl.Cl", "note": "[Example 7, N-methyl-1-[1-(2-methylpyrimidin-5-ylsulfonyl)-5-phenyl-1H-pyrrol-3-yl]-methanamine dihydrochloride]", "values": [{"measurement": "IC50", "setting": "[1]", "result": 34, "unit": "nM"}, {"measurement": "ATP content (%, 30 μM)", "setting": "HepG2 cells", "result": 76.5, "unit": "%"}]}
{"smiles": "CNCc1cc(-c2ccccc2F)n(S(=O)(=O)c2cccnc2)c1.O=C(O)/C=C/C(=O)O", "note": "[Example 8, 1-[5-(2-fluorophenyl)-1-(pyridin-3-ylsulfonyl)-1H-pyrrol-3-yl]-N-methylmethanamine fumarate]", "values": [{"measurement": "IC50", "setting": "[1]", "result": 22, "unit": "nM"}, {"measurement": "ATP content (%, 30 μM)", "setting": "HepG2 cells", "result": 87.9, "unit": "%"}]}
{"smiles": "CNCc1cc(-c2cscc2C)n(S(=O)(=O)c2cccnc2)c1.Cl.Cl", "note": "[Example 29, N-methyl-1-[5-(4-methyl-3-thienyl)-1-(pyridin-3-ylsulfonyl)-1H-pyrrol-3-yl]methanamine dihydrochloride]", "values": [{"measurement": "IC50", "setting": "[1]", "result": 41, "unit": "nM"}, {"measurement": "ATP content (%, 30 μM)", "setting": "HepG2 cells", "result": 71.5, "unit": "%"}]}
{"smiles": "CNCc1cc(-c2ccc(F)cc2F)n(S(=O)(=O)c2cccnc2)c1.Cl.Cl", "note": "[Example 32, 1-[5-(2,4-difluorophenyl)-1-(pyridin-3-ylsulfonyl)-1H-pyrrol-3-yl]-N-methylmethanamine dihydrochloride]", "values": [{"measurement": "IC50", "setting": "[1]", "result": 8.9, "unit": "nM"}, {"measurement": "ATP content (%, 30 μM)", "setting": "HepG2 cells", "result": 53.6, "unit": "%"}]}
{"smiles": "CNCc1cn(S(=O)(=O)c2cccnc2)c(-c2ccccc2)c1F.Cl.Cl", "note": "[Example 41, 1-[4-fluoro-5-phenyl-1-(pyridin-3-ylsulfonyl)-1H-pyrrol-3-yl]-N-methylmethanamine dihydrochloride]", "values": [{"measurement": "IC50", "setting": "[1]", "result": 43, "unit": "nM"}, {"measurement": "ATP content (%, 30 μM)", "setting": "HepG2 cells", "result": 86.7, "unit": "%"}]}
{"smiles": "CNCc1cc(-c2ccccc2F)n(S(=O)(=O)c2ccc(C)nc2)c1.Cl.Cl", "note": "[Example 44, 1-{5-(2-fluorophenyl)-1-[(6-methylpyridin-3-yl)sulfonyl]-1H-pyrrol-3-yl}-N-methylmethanamine dihydrochloride]", "values": [{"measurement": "IC50", "setting": "[1]", "result": 48, "unit": "nM"}, {"measurement": "ATP content (%, 30 μM)", "setting": "HepG2 cells", "result": 78.5, "unit": "%"}]}
{"smiles": "CNCc1cc(-c2ccccc2C)n(S(=O)(=O)c2cccnc2)c1.O=C(O)/C=C/C(=O)O", "note": "[Example 47, N-methyl-1-[5-(2-methylphenyl)-1-(pyridin-3-ylsulfonyl)-1H-pyrrol-3-yl]methanamine fumarate]", "values": [{"measurement": "IC50", "setting": "[1]", "result": 58, "unit": "nM"}, {"measurement": "ATP content (%, 30 μM)", "setting": "HepG2 cells", "result": 81.8, "unit": "%"}]}
{"smiles": "CNCc1cc(-c2cccnc2F)n(S(=O)(=O)c2cccnc2)c1.O=C(O)/C=C/C(=O)O", "note": "[Example 74, 1-[5-(2-fluoropyridin-3-yl)-1-(pyridin-3-ylsulfonyl)-1H-pyrrol-3-yl]-N-methylmethanamine fumarate]", "values": [{"measurement": "IC50", "setting": "[1]", "result": 210, "unit": "nM"}, {"measurement": "ATP content (%, 30 μM)", "setting": "HepG2 cells", "result": 95.2, "unit": "%"}]}
